According to ChEMBL document CHEMBL5236596, “Discovery and Optimization of N-Acyl-6-sulfonamide-tetrahydroquinoline Derivatives as Novel Non-Steroidal Selective Glucocorticoid Receptor Modulators” (J Med Chem, 2022):

How the values were obtained:
NIH3T3 = assay: Cytotoxicity against mouse 3T3 cells assessed as inhibition of cell growth; assay type: toxicity, cell-based
[1] = Cytotoxicity against human Chang liver cells assessed as inhibition of cell growth; assay type: toxicity, cell-based
GES1 = assay: Cytotoxicity against human GES1 cells assessed as inhibition of cell growth; assay type: toxicity, cell-based
Glucocorticoid receptor [2] = biological target: T1, Glucocorticoid receptor (Homo sapiens, UniProt P04150); assay: Antagonist activity at glucocorticoid receptor (unknown origin) transfected in human HeLa cells assessed as inhibition of dexamethasone-induced transactivation of receptor incubated for 18 hrs by firefly luciferase assay; assay type: cell-based
T1 sequence (P04150 whole entry): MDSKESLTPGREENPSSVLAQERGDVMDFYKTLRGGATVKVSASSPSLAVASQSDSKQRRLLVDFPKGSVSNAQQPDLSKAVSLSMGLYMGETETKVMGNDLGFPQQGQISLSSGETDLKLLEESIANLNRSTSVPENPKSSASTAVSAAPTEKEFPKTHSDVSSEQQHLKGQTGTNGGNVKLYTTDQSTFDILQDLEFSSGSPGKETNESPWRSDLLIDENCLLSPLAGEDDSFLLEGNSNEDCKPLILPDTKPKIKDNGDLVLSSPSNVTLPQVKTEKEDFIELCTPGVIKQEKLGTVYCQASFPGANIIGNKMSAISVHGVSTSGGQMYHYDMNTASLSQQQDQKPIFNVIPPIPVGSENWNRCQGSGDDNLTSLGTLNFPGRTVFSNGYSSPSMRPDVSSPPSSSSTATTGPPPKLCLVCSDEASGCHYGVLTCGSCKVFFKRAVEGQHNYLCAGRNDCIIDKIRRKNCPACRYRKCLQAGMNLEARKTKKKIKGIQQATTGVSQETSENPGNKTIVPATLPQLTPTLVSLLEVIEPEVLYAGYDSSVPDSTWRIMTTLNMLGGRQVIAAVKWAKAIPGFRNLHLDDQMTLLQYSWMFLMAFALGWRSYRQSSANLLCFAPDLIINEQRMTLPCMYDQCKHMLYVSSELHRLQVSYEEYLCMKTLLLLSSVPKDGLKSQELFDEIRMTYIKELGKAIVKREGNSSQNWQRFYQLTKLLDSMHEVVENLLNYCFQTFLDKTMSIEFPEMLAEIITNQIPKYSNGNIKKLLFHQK

Glucocorticoid receptor [3] = biological target: T1, Glucocorticoid receptor; assay: Modulation of glucocorticoid receptor (unknown origin) transfected in human HeLa cells assessed as transrepression by measuring inhibition of TNF-alpha induced NF-kappaB signalling incubated for 18 hrs by dual-luciferase reporter based assay; assay type: cell-based
Glucocorticoid receptor [4] = biological target: T1, Glucocorticoid receptor; assay: Binding affinity to glucocorticoid receptor (unknown origin) by Lanthascreen TR-FRET competition binding assay
Glucocorticoid receptor [5] = biological target: T1, Glucocorticoid receptor; assay: Modulation of glucocorticoid receptor (unknown origin) transfected in human HeLa cells assessed as transrepression by measuring inhibition of PMA-induced AP-1 signalling incubated for 18 hrs by dual-luciferase reporter based assay; assay type: cell-based
[6] = Inhibition of LPS-induced IL-6 secretion in mouse primary peritoneal macrophages by ELISA; assay type: functional, cell-based; conditions: Peritoneal macrophage
[7] = Inhibition of LPS-induced TNF-alpha secretion in mouse primary peritoneal macrophages by ELISA; assay type: functional, cell-based; conditions: Peritoneal macrophage
[8] = Oral bioavailability in BALB/c mouse at 10 mg/kg; assay type: ADME, organism-based; conditions: in vivo
[9] = Cmax in BALB/c mouse at 10 mg/kg, po; assay type: ADME, organism-based; parameters: dose 10 mg/kg, route po; conditions: in vivo
[10] = Half life in BALB/c mouse at 10 mg/kg, po; assay type: ADME, organism-based; conditions: in vivo
[11] = Toxicity in DNCB-induced BALB/c atopic dermatitis mouse model assessed as reduction in body weight at 5 to 20 mg/kg, po administered via gavage for 21 consecutive days starting from day 4 post DNCB stimulation; assay type: organism-based; conditions: in vivo, 504 h, dose 5-20 mg/kg, time 21 day
[12] = Tmax in BALB/c mouse at 10 mg/kg, po; assay type: ADME, organism-based; conditions: in vivo
[13] = Toxicity in DNCB-induced BALB/c atopic dermatitis mouse model assessed as body weight gain at 1 mg/kg, po administered via gavage for 21 consecutive days starting from day 4 post DNCB stimulation; assay type: organism-based; conditions: in vivo, 504 h, time 21 day

| Compound | IC50 (Glucocorticoid receptor [2]) | IC50 (Glucocorticoid receptor [3]) | IC50 (Glucocorticoid receptor [4]) | IC50 (Glucocorticoid receptor [5]) | other results |
| --- | --- | --- | --- | --- | --- |
| CC(C)[C@H](NC(=O)C(C)(F)F)[C@H](Oc1ccc2c(cnn2-c2ccc(=O)n(C)c2)c1)c1ccccc1 [MIZACORAT] | – | – | – | – | Activity (NIH3T3): Toxic; Activity [1]: Toxic; Activity (GES1): Toxic |
| COc1ccc(C(=O)/C=C/c2cccc(OC)c2OC)cc1 | – | – | – | – | IC50 [6]: 10 µM; IC50 [7]: 10 µM |
| O=C(c1ccco1)N1CCCc2cc(NS(=O)(=O)CCc3ccccc3)ccc21 | > 10 µM | > 10 µM | > 10 µM | 6.53 µM | – |
| O=C(c1ccco1)N1CCCc2cc(N(S(=O)(=O)c3ccc([N+](=O)[O-])cc3)S(=O)(=O)c3ccc([N+](=O)[O-])cc3)ccc21 | – | 2.66 µM | > 50 µM | 4.8 µM | – |
| C[C@@H]1C[C@H]2[C@@H]3CCC4=CC(=O)C=C[C@]4(C)[C@@]3(F)[C@@H](O)C[C@]2(C)[C@@]1(O)C(=O)CO [DEXAMETHASONE] | – | – | – | – | Activity [13]: Non-Toxic; Activity (GES1): Non-Toxic |

Further lines, with some results ahead:

| IC50 (Glucocorticoid receptor [2]) | IC50 (Glucocorticoid receptor [3]) | IC50 (Glucocorticoid receptor [4]) | IC50 (Glucocorticoid receptor [5]) | Compound | other results |
| --- | --- | --- | --- | --- | --- |
| 27.3 µM | 0.05 µM | 2.75 µM | 0.53 µM | COc1cc(C)c(Cl)cc1S(=O)(=O)Nc1ccc2c(c1)CCCN2C(=O)N(C)C | – |
| 14.2 µM | 0.35 µM | 6.96 µM | 2.73 µM | COc1cc(C)c(Cl)cc1S(=O)(=O)Nc1ccc2c(c1)CCCN2C(=O)c1ccc(F)cc1 | – |
| 12.1 µM | 0.47 µM | 3.19 µM | 2.71 µM | COc1cc(C)c(Cl)cc1S(=O)(=O)Nc1ccc2c(c1)CCCN2C(C)=O | – |
| 19 µM | 0.009 µM | 1.91 µM | 0.13 µM | COc1cc(C)c(Cl)cc1S(=O)(=O)Nc1ccc2c(c1)CCCN2C(=O)c1ccccc1 | bioavailability [8]: 19.8%; IC50 [6]: 6.9 µM; Activity (NIH3T3): Non-Toxic; Cmax [9]: 394 ng/mL; half-life [10]: 30 min; IC50 [7]: 7.74 µM; Activity [11]: Non-Toxic; Tmax [12]: 5 min; Activity (GES1): Non-Toxic |
| – | 0.58 µM | > 50 µM | > 10 µM | COc1cc(C)c(Cl)cc1S(=O)(=O)Nc1ccc2c(c1)CCCN2C(=O)C1CCCCC1 | – |
| – | 0.1 µM | 7.5 µM | 0.36 µM | COc1cc(C)c(C)cc1S(=O)(=O)Nc1ccc2c(c1)CCCN2C(=O)C1CC1 | – |
